Laboratory results taken from patent US11384114B2, “Polymorphic forms of an oxysterol and methods of making them” (Warsaw Orthopedic, Inc., priority 2016, dated 2022).
Values joined by “and” are separate entries in the source; they are usually repeats but may differ in a detail not shown here. Equal entries are not always repeated.

Tests used:
Format in all cases: physicochemical
[1] = Crystal form stability on vacuum oven drying; details: for Crystal Form (XRPD): solid after drying at 20, 35 or 50 C, solvent system differs per item
Procedure: 2.0 g anhydrous OXY133 was added to 10 mL isopropanol in a 100 mL polyblock reactor. The mixture was heated to 30° C. and then stirred at 30° C. for 45 minutes until the solids were dissolved completely. Acceptable heating temperatures ranged from 25° C. to 35° C. A polish filtration step can be added after dissolving the anhydrous OXY133. The mixture of anhydrous OXY133 and isopropanol was then cooled to 5° C. 20 mL of water was then added to the cooled mixture over 120 minutes at 5° C., resulting in the formation of a precipitate approximately one third of the way through the addition of water. The water addition can also be done in temperature ranges from about 0° C. to about 20° C. with no significant effect on the crystal structure. The resulting mixture of OXY133, isopropanol and water was then stirred at 5° C. for 18 hours. However, it is recommended that the resulting mixture could be mixed for at least 2 hours at 5° C. after the water addition was complete to ensure that all solids were precipitated from the solution. A white solid was collected by rapidly filtering the mixture and then washing the solid with 2.0 mL of an isopropanol:water mixture in a ratio of 1:2 v/v. The filtered and washed solids were then dried in a vacuum oven at 20° C. Acceptable temperatures for drying can range from about 20° C. to about 30° C.

[2] = Karl-Fisher (KF) water determination of isolated solid; details: for KF (water content determined by Karl Fischer water determination method): OXY133 polymorph sample, processing point and temperature differ per item of Table 15; for KF (Wt %) water content: solid isolated from acetone/water slurry at 0-25° C.
Excerpt: Further, Table 15 below is a list of OXY133 polymorphs Forms A, B, C, D, E, F, G, H and I identified by a high performance liquid chromatography (HPLC) followed by charged aerosol detector (CAD) method. Table 15 also lists the starting products, the solvent system including solvent and anti-solvent, the temperature at which a polymorph was formed, the water content of the polymorph as determined by the Karl-Fisher (KF) method of water determination, and where available, the yield and purity of the resulting polymorph.

DSC/TGA water loss = assay: DSC/TGA water loss
Procedure: Differential scanning calorimetry (DSC) and thermo-gravimetric analysis (TGA) were also collected for some of the OXY133 polymorphs. The equipment utilized to collect the DSC/TGA data was a Mettler Toledo DSC 2 equipped with an aluminum 40 μL crimped pan with a pin hole and the ramp rate was 10° C./min. DSC/TGA thermograms identifying several OXY133 polymorphs are illustrated in FIGS. 20-25.

[3] = Stability of the crystal form on stirring in the acetone/water solvent system; details: slurry stirred in acetone/water (Form C at about 20° C.; Form F at about 20° C. or about 5° C.)
[4] = isolated solid, lot 2891-28-1, prepared from anhydrous OXY133 in isopropanol/water at 5° C. (Example 6)

SMILES: CCCCCC[C@](C)(O)[C@H]1CC[C@H]2[C@@H]3C[C@H](O)[C@H]4C[C@@H](O)CC[C@]4(C)[C@H]3CC[C@@]21C [Form 2891-8-3]
- Crystal Form (XRPD) [1]: Form A
- KF (water content determined by Karl Fischer water determination method) [2]: 3.25%
- KF (Wt %) water content [2]: 3.25 Wt %

SMILES: CCCCCC[C@](C)(O)[C@H]1CC[C@H]2[C@@H]3C[C@H](O)[C@H]4C[C@@H](O)CC[C@]4(C)[C@H]3CC[C@@]21C [Form 2891-9-3]
- Crystal Form (XRPD) [1]: Form A
- KF (water content determined by Karl Fischer water determination method) [2]: 3.83%
- KF (Wt %) water content [2]: 3.83 Wt %

SMILES: CCCCCC[C@](C)(O)[C@H]1CC[C@H]2[C@@H]3C[C@H](O)[C@H]4C[C@@H](O)CC[C@]4(C)[C@H]3CC[C@@]21C [Form 2891-10-3]
- Crystal Form (XRPD) [1]: Form A
- KF (water content determined by Karl Fischer water determination method) [2]: 4.02%
- KF (Wt %) water content [2]: 4.02 Wt %

SMILES: CCCCCC[C@](C)(O)[C@H]1CC[C@H]2[C@@H]3C[C@H](O)[C@H]4C[C@@H](O)CC[C@]4(C)[C@H]3CC[C@@]21C.O [Form A, (3S,5S,6S,8R,9S,10R,13S,14S,17S)-17-((S)-2-hydroxyoctan-2-yl)-10,13-dimethylhexadecahydro-1H-cyclopenta[a]phenanthrene-3,6-diol, monohydrate]
- crystal form change on drying ([1]; drying at temperatures above about 20° C. to about 30° C.): slow conversion of OXY133 monohydrate to a different, unknown crystal form
- KF [2, 4]: 4.07%
- DSC/TGA (DSC/TGA water loss; [4]): 4.76%
- water loss (DSC/TGA) (DSC/TGA water loss; ramp rate 10° C./min, listed as OXY133 monohydrate, monohydrate): 4.57% and 4.00%

SMILES: CCCCCC[C@](C)(O)[C@H]1CC[C@H]2[C@@H]3C[C@H](O)[C@H]4C[C@@H](O)CC[C@]4(C)[C@H]3CC[C@@]21C [Form C]
- stability of crystal form in acetone/water solvent system [3]: fairly stable

SMILES: CCCCCC[C@](C)(O)[C@H]1CC[C@H]2[C@@H]3C[C@H](O)[C@H]4C[C@@H](O)CC[C@]4(C)[C@H]3CC[C@@]21C [Form F]
- stability of crystal form in acetone/water solvent system [3]: somewhat stable
